In patent US20020132845A1, “Compositions and methods for the prevention and treatment of tissue ischemia” (priority 2000, published 2002):

Test system: transient focal cerebral ischemia induced by Middle Cerebral Artery Occlusion (MCAO)
Assay: Animal cerebral infarct assay: two-hour Middle Cerebral Artery Occlusion (MCAO) with reperfusion
Assay type: in vivo, rat
Conditions: intraventricular (i.c.v.), 0.0067 mg/kg to 0.67 mg/kg
Excerpt: This assay is used to assess the efficacy of the test agents in protecting the brain against necrosis following cerebral ischemia induced in rats. Middle Cerebral Artery Occlusion (MCAO) is a widely used technique to induce transient focal cerebral ischemia in animal models. […] Furthermore, this model accurately represents the involvement of middle cerebral artery (MCA), the most affected vessel in human stroke, and also allows reperfusion as it happens in humans. MCAO by a two-hour occlusion is used to produce the maximum size of cortical infarction without increased mortality at twenty-four hours. Male Wistar rats (Hadan, Ind.) weighing 300-350 g were allowed free access to water and commercial rodent diet under standard laboratory conditions. The room temperature was maintained at 20-23° C. and room illumination was on a 12/12-hour light/dark cycle. The rats were acclimatized to the laboratory environment 5 to 7 days prior to the study. Before surgery, the animals were fasted overnight, but had free access to water. The rats were anesthetized with 3.0% isoflurane (Aerrane, Front Dodge, Iowa) in […] and the animal's neck was shaved and sterilized before the operation. The animals were subjected to two hours MCAO using a modified intraluminal filament technique. A midline incision on the ventral part of the neck was made to expose external and internal carotid arteries. The right external and common carotid arteries were ligated by a suture (silk 5/0, Carlisle Laboratories, Farmers Branch, Tex.) and the right internal artery was temporarily ligated by a microvascular clip (Fine Science Tool Inc., Foster City, Calif.). A small incision was made in the common carotid artery and a nylon filament, its tip rounded by heating, prepared from a fishing line (Stren Fishing Lines, Wilmington, Del.) was inserted from the right common carotid artery. The filament was advanced into the internal carotid artery 18-20 mm from the point of bifurcation of internal and external arteries and a suture was tightly ligated around the filament. Two hours post occlusion, the animals were re-anesthetized to allow reperfusion for the remaining of the experiment by removal of the filament. The anesthetized animal were placed on a stereotaxic apparatus (Harvard Apparatus, S. Natick, Mass.). Anesthesia was maintained by inhalation of 3.0% isoflurane in […] throughout the entire procedure. The scalp was shaved and sterilized prior to surgery. A midline sagittal incision about 3 cm long was made slightly behind the eyes to expose the skull. The skull was scraped with a rounded end spatula to remove periosteal connective tissue. A bur hole was placed 1.5 mm lateral, 1 mm posterior to the left of the bregma to mark the left lateral ventricle. A brain infusion cannula (ALZET CO. Palo Alto, Calif.) was inserted 4 mm deep into the hole. The desired depth was adjusted by attaching spacers to the cannula. The cannula was attached to a 4-cm silastic catheter (Helix Medical Inc.) fixed in place with dental cement (Ketac-cement, Norristown, Pa.). The catheter was either attached to a primed osmotic pump placed subcutaneously between the shoulder blades for permanent infusion or to a syringe for a short infusion. Anesthesia was maintained by inhalation of 3.0% isoflurane in […] throughout the entire procedure. The exterior site of the right femoral vein was shaved and sterilized prior to surgery. A 3 cm incision was made in the right groin region and the femoral vein was isolated. A small incision was made on the femoral vein temporarily ligated with a microvascular clip to introduce and advance a polyethylene (PE-50) catheter (Becton. Dickinson and Co., Sparks, Md.). The catheter was secured in place with suture (silk 5/0, Carlisle Laboratories, Farmers Branch, Tex.). The other end of the catheter was attached to a syringe filled with the heparinized saline for the bolus injection. […]

Substance: bromo-quercetin
- reductions of infarct volumes: greater than 50%
